Tests used:
[1] = system: Wistar, adult, male, rats; assay: Induction of status epilepticus by systemic pilocarpine; type: in vivo; settings: pilocarpine 320 mg/Kg intraperitoneal
[2] = system: kainate model of epilepsy; assay: Onset of spontaneous recurrent seizures in the kainate model of epilepsy

| SMILES | Latency for the onset of status epilepticus after injection [1] [min] | Effect on onset of spontaneous recurrent seizures (in words) [2] |
| --- | --- | --- |
| CC[C@@H]1C(=O)OC[C@@H]1Cc1cncn1C [pilocarpine] | 19 ± 5 | – |
| CN1[C@@H]2C[C@@H](OC(=O)[C@H](CO)c3ccccc3)C[C@H]1[C@@H]1O[C@@H]12 [scopolamine] | – | retard or even suppress the onset of spontaneous recurrent seizures |
